Results as given in the supplement of paper PMC9663587.

Experiments:
Experiment in all cases: GR value, 72 h; higher = faster growth (1 = untreated, <0 = killing);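 further: breast cancer and non-malignant breast epithelial lines, nine half-log doses, viable cells counted by Hoechst and LIVE/DEAD dye imaging versus time-zero plates and DMSO controls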
FMF-03-146-1 = compound: CN1CCN(CC1)C2=CC(=C(C=C2)NC3=NC=C4C(=N3)N(C5=CC=CC=C5C(=O)N4CC(F)(F)F)C)OC [FMF-03-146-1]
Cabozantinib = compound: COc1cc2nccc(Oc3ccc(NC(=O)C4(C(=O)Nc5ccc(F)cc5)CC4)cc3)c2cc1OC [Cabozantinib]
FMF-03-145-1 = compound: CCC(=O)Nc1ccc(C(=O)Nc2ccc(Nc3ncc4c(n3)N(C)c3ccc(C)cc3C(=O)N4C)cc2)cc1 [FMF-03-145-1]
Luminespib/NVP-AUY922 = compound: CCNC(=O)c1noc(-c2cc(C(C)C)c(O)cc2O)c1-c1ccc(CN2CCOCC2)cc1 [Luminespib/NVP-AUY922]
Paclitaxel = compound: CC(=O)O[C@H]1C(=O)[C@@]2(C)[C@H]([C@H](OC(=O)c3ccccc3)[C@]3(O)C[C@H](OC(=O)[C@H](O)[C@@H](NC(=O)c4ccccc4)c4ccccc4)C(C)=C1C3(C)C)[C@]1(OC(C)=O)CO[C@@H]1C[C@@H]2O [Paclitaxel]
[1] = compound: Cc1nn(C)c(COc2ccc(N3CCN(S(=O)(=O)N(C)C)CC3)cc2)c1-c1cccc2c(CCCOc3cccc4ccccc34)c(C(=O)O)n(CCN3CCOCC3)c12
AZD5363 = compound: NC1(C(=O)N[C@@H](CCO)c2ccc(Cl)cc2)CCN(c2nc[nH]c3nccc2-3)CC1 [AZD5363]
AZD2014 = compound: CNC(=O)c1cccc(-c2ccc3c(N4CCOC[C@@H]4C)nc(N4CCOC[C@@H]4C)nc3n2)c1 [AZD2014]
R0-3306 = compound: C1=CC2=C(C=CC(=C2)C=C3C(=O)NC(=NCC4=CC=CS4)S3)N=C1 [R0-3306]
Ceritinib/LDK378 = compound: Cc1cc(Nc2ncc(Cl)c(Nc3ccccc3S(=O)(=O)C(C)C)n2)c(OC(C)C)cc1C1CCNCC1 [Ceritinib/LDK378]
Tivantinib/ARQ197 = compound: O=C1NC(=O)[C@@H](c2cn3c4c(cccc24)CCC3)[C@@H]1c1c[nH]c2ccccc12 [Tivantinib/ARQ197]

## AU565
FMF-03-146-1; 0.001 µM
  GR value: 0.955 GR
FMF-03-146-1; 0.003162 µM
  GR value: 1.02 GR
FMF-03-146-1; 0.01 µM
  GR value: 1.03 GR
FMF-03-146-1; 0.03162 µM
  GR value: 1 GR
FMF-03-146-1; 0.1 µM
  GR value: 0.928 GR
FMF-03-146-1; 0.3162 µM
  GR value: 0.924 GR
FMF-03-146-1; 1 µM
  GR value: 0.874 GR
FMF-03-146-1; 3.162 µM
  GR value: 0.894 GR
FMF-03-146-1; 10 µM
  GR value: 0.695 GR
Cabozantinib; 0.001 µM
  GR value: 1.03 GR
Cabozantinib; 0.003162 µM
  GR value: 1.04 GR
Cabozantinib; 0.01 µM
  GR value: 1.03 GR
Cabozantinib; 0.03162 µM
  GR value: 1.06 GR
Cabozantinib; 0.1 µM
  GR value: 1.06 GR
Cabozantinib; 0.3162 µM
  GR value: 1.12 GR
Cabozantinib; 1 µM
  GR value: 0.997 GR
Cabozantinib; 3.162 µM
  GR value: 1.02 GR
Cabozantinib; 10 µM
  GR value: 0.309 GR
FMF-03-145-1; 0.0001 µM
  GR value: 0.967 GR
FMF-03-145-1; 0.0003162 µM
  GR value: 0.975 GR
FMF-03-145-1; 0.001 µM
  GR value: 0.99 GR
FMF-03-145-1; 0.003162 µM
  GR value: 0.971 GR
FMF-03-145-1; 0.01 µM
  GR value: -0.215 GR
FMF-03-145-1; 0.03162 µM
  GR value: -0.0803 GR
FMF-03-145-1; 0.1 µM
  GR value: -0.163 GR
Luminespib/NVP-AUY922; 0.0001 µM
  GR value: 0.887 GR
Luminespib/NVP-AUY922; 0.0003162 µM
  GR value: 0.966 GR
Luminespib/NVP-AUY922; 0.001 µM
  GR value: 0.942 GR
Luminespib/NVP-AUY922; 0.003162 µM
  GR value: 0.648 GR
Luminespib/NVP-AUY922; 0.01 µM
  GR value: 0.165 GR
Luminespib/NVP-AUY922; 0.03162 µM
  GR value: -0.079 GR
Luminespib/NVP-AUY922; 0.1 µM
  GR value: -0.156 GR
Luminespib/NVP-AUY922; 0.3162 µM
  GR value: -0.214 GR
Luminespib/NVP-AUY922; 1 µM
  GR value: -0.227 GR
Paclitaxel; 0.0001 µM
  GR value: 1.05 GR
Paclitaxel; 0.0003162 µM
  GR value: 1.1 GR
Paclitaxel; 0.001 µM
  GR value: 0.919 GR
Paclitaxel; 0.003162 µM
  GR value: -0.244 GR
Paclitaxel; 0.01 µM
  GR value: -0.459 GR
Paclitaxel; 0.03162 µM
  GR value: -0.515 GR
Paclitaxel; 0.1 µM
  GR value: -0.482 GR
Paclitaxel; 0.3162 µM
  GR value: -0.467 GR
Paclitaxel; 1 µM
  GR value: -0.475 GR
[1]; 0.001 µM
  GR value: 1.03 GR
[1]; 0.003162 µM
  GR value: 1.04 GR
[1]; 0.01 µM
  GR value: 1.09 GR
[1]; 0.03162 µM
  GR value: 1.03 GR
[1]; 0.1 µM
  GR value: 1.06 GR
[1]; 0.3162 µM
  GR value: 1.05 GR
[1]; 1 µM
  GR value: 1.03 GR
[1]; 3.162 µM
  GR value: 1.05 GR
[1]; 10 µM
  GR value: 0.613 GR
AZD5363; 0.001 µM
  GR value: 1.15 GR
AZD5363; 0.003162 µM
  GR value: 0.991 GR
AZD5363; 0.01 µM
  GR value: 0.884 GR
AZD5363; 0.03162 µM
  GR value: 0.793 GR
AZD5363; 0.1 µM
  GR value: 0.786 GR
AZD5363; 0.3162 µM
  GR value: 0.717 GR
AZD5363; 1 µM
  GR value: 0.655 GR
AZD5363; 3.162 µM
  GR value: 0.682 GR
AZD5363; 10 µM
  GR value: 0.399 GR
AZD2014; 0.001 µM
  GR value: 0.592 GR
AZD2014; 0.003162 µM
  GR value: 0.509 GR
AZD2014; 0.01 µM
  GR value: 0.415 GR
AZD2014; 0.03162 µM
  GR value: 0.249 GR
AZD2014; 0.1 µM
  GR value: 0.219 GR
AZD2014; 0.3162 µM
  GR value: 0.149 GR
AZD2014; 1 µM
  GR value: 0.106 GR
AZD2014; 3.162 µM
  GR value: -0.0159 GR
AZD2014; 10 µM
  GR value: -0.0097 GR
R0-3306; 0.001 µM
  GR value: 0.805 GR
R0-3306; 0.003162 µM
  GR value: 0.756 GR
R0-3306; 0.01 µM
  GR value: 0.522 GR
R0-3306; 0.03162 µM
  GR value: 0.735 GR
R0-3306; 0.1 µM
  GR value: 0.692 GR
R0-3306; 0.3162 µM
  GR value: 0.711 GR
R0-3306; 1 µM
  GR value: 0.548 GR
R0-3306; 3.162 µM
  GR value: 0.375 GR
R0-3306; 10 µM
  GR value: -0.214 GR
Ceritinib/LDK378; 0.001 µM
  GR value: 1.01 GR
Ceritinib/LDK378; 0.003162 µM
  GR value: 0.971 GR
Ceritinib/LDK378; 0.01 µM
  GR value: 1 GR
Ceritinib/LDK378; 0.03162 µM
  GR value: 1.01 GR
Ceritinib/LDK378; 0.1 µM
  GR value: 0.983 GR
Ceritinib/LDK378; 0.3162 µM
  GR value: 0.993 GR
Ceritinib/LDK378; 1 µM
  GR value: 0.887 GR
Ceritinib/LDK378; 3.162 µM
  GR value: 0.479 GR
Tivantinib/ARQ197; 0.001 µM
  GR value: 1.08 GR
Tivantinib/ARQ197; 0.003162 µM
  GR value: 1.04 GR
Tivantinib/ARQ197; 0.01 µM
  GR value: 1.1 GR
Tivantinib/ARQ197; 0.03162 µM
  GR value: 1.03 GR
Tivantinib/ARQ197; 0.1 µM
  GR value: 0.841 GR
Tivantinib/ARQ197; 0.3162 µM
  GR value: 0.191 GR
Tivantinib/ARQ197; 1 µM
  GR value: -0.542 GR
Tivantinib/ARQ197; 3.162 µM
  GR value: -0.468 GR
Tivantinib/ARQ197; 10 µM
  GR value: -0.479 GR
